Measured values: US11629201B2, “PSMA-binding agents and uses thereof” (ITM Isotope Technologies Munich SE, priority 2017, dated 2023)

System: PC-3 PIP/flu tumor-bearing mice
Assay: Biodistribution studies in PC-3 PIP/flu tumor-bearing mice
Conditions: for Tumor-to-blood / Tumor-to-kidney / Tumor-to-liver: PC-3 PIP tumor

Cc1ccc(CCCC(=O)NCCCCC(NC(=O)CN2CCN(CC(=O)O)CCN(CC(=O)O)CCN(CC(=O)O)CC2)C(=O)NCC2CCC(C(=O)NC(Cc3ccc4ccccc4c3)C(=O)NCCCCC(NC(=O)NC(CCC(=O)O)C(=O)O)C(=O)O)CC2)cc1 (stereo not drawn) [44Sc-PSMA-ALB-06, metal not drawn]
Tumor-to-blood (1 h p.i.): 0.94 ± 0.11
Tumor-to-kidney (1 h p.i.): 0.77 ± 0.12
Tumor-to-liver (1 h p.i.): 4.28 ± 0.52
Blood (4 h p.i.): 18.4 ± 1.00 % IA/g
Bone (4 h p.i.): 2.50 ± 0.35 % IA/g
Heart (4 h p.i.): 6.48 ± 0.50 % IA/g
Intestines (4 h p.i.): 2.50 ± 0.13 % IA/g
Kidneys (4 h p.i.): 28.8 ± 2.46 % IA/g
Muscle (4 h p.i.): 2.24 ± 0.10 % IA/g
PC-3 PIP Tumor (4 h p.i.): 61.7 ± 7.32 % IA/g
PC-3 flu Tumor (4 h p.i.): 4.37 ± 0.43 % IA/g
Salivary glands (4 h p.i.): 4.55 ± 0.41 % IA/g
Spleen (4 h p.i.): 4.10 ± 0.54 % IA/g
Tumor-to-blood (4 h p.i.): 3.35 ± 0.20
Tumor-to-kidney (4 h p.i.): 2.14 ± 0.15
Tumor-to-liver (4 h p.i.): 17.93 ± 3.32
Blood (6 h p.i.): 15.6 ± 0.75 % IA/g
Bone (6 h p.i.): 2.54 ± 0.27 % IA/g
Intestines (6 h p.i.): 2.07 ± 0.34 % IA/g
Kidneys (6 h p.i.): 21.7 ± 0.42 % IA/g
Liver (6 h p.i.): 3.67 ± 0.68 % IA/g
Lung (6 h p.i.): 9.44 ± 0.86 % IA/g
PC-3 PIP Tumor (6 h p.i.): 72.9 ± 11.1 % IA/g
PC-3 flu Tumor (6 h p.i.): 3.87 ± 0.45 % IA/g
Salivary gland (6 h p.i.): 4.03 ± 0.22 % IA/g
Spleen (6 h p.i.): 3.67 ± 0.37 % IA/g
Tumor-to-blood (6 h p.i.): 4.69 ± 0.67
Tumor-to-kidney (6 h p.i.): 3.35 ± 0.42
Tumor-to-liver (6 h p.i.): 20.2 ± 3.43

O=C(O)CCC(NC(=O)NC(CCCCNC(=O)C(Cc1ccc2ccccc2c1)NC(=O)C1CCC(n2cc(CC(NC(=O)CN3CCN(CC(=O)O)CCN(CC(=O)O)CCN(CC(=O)O)CC3)C(=O)NC(CCCCNC(=O)CCCc3ccc(I)cc3)C(=O)O)nn2)CC1)C(=O)O)C(=O)O (stereo not drawn) [^177Lu-PSMA-ALB-01, metal not drawn]
Tumor-to-blood (1 h p.i.): 0.30 ± 0.06
Tumor-to-kidney (1 h p.i.): 0.46 ± 0.04
Tumor-to-liver (1 h p.i.): 1.56 ± 0.30
Blood (4 h p.i.): 25.6 ± 1.53 % IA/g
Bone (4 h p.i.): 3.01 ± 0.09 % IA/g
Heart (4 h p.i.): 8.71 ± 0.50 % IA/g
Intestines (4 h p.i.): 4.17 ± 0.70 % IA/g
Kidneys (4 h p.i.): 24.6 ± 0.38 % IA/g
Liver (4 h p.i.): 5.92 ± 0.07 % IA/g
Lung (4 h p.i.): 14.1 ± 0.99 % IA/g
Muscle (4 h p.i.): 2.06 ± 0.80 % IA/g
PC-3 PIP Tumor (4 h p.i.): 20.4 ± 0.39 % IA/g
PC-3 flu Tumor (4 h p.i.): 5.03 ± 1.61 % IA/g
Salivary glands (4 h p.i.): 5.20 ± 0.73 % IA/g
Spleen (4 h p.i.): 5.34 ± 0.90 % IA/g
Stomach (4 h p.i.): 3.30 ± 0.05 % IA/g
Tumor-to-blood (4 h p.i.): 0.80 ± 0.03
Tumor-to-kidney (4 h p.i.): 0.83 ± 0.03
Tumor-to-liver (4 h p.i.): 3.45 ± 0.03
Blood (8 h p.i.): 21.0 ± 2.86 % IA/g
Bone (8 h p.i.): 2.54 ± 0.26 % IA/g
Heart (8 h p.i.): 7.16 ± 1.23 % IA/g
Intestines (8 h p.i.): 2.44 ± 0.17 % IA/g
Kidneys (8 h p.i.): 22.6 ± 2.38 % IA/g
Liver (8 h p.i.): 5.31 ± 1.23 % IA/g
Lung (8 h p.i.): 11.6 ± 0.83 % IA/g
Muscle (8 h p.i.): 1.63 ± 0.27 % IA/g
PC-3 PIP Tumor (8 h p.i.): 25.5 ± 2.02 % IA/g
PC-3 flu Tumor (8 h p.i.): 4.01 ± 0.79 % IA/g
Salivary glands (8 h p.i.): 4.45 ± 0.56 % IA/g
Spleen (8 h p.i.): 4.05 ± 0.69 % IA/g
Stomach (8 h p.i.): 2.45 ± 0.43 % IA/g
Tumor-to-blood (8 h p.i.): 1.22 ± 0.08
Tumor-to-kidney (8 h p.i.): 1.13 ± 0.07
Tumor-to-liver (8 h p.i.): 4.97 ± 1.21
Blood (24 h p.i.): 14.2 ± 1.40 % IA/g
Bone (24 h p.i.): 1.58 ± 0.06 % IA/g
Heart (24 h p.i.): 5.93 ± 0.65 % IA/g
Intestines (24 h p.i.): 2.12 ± 0.20 % IA/g
Kidneys (24 h p.i.): 22.7 ± 2.18 % IA/g
Liver (24 h p.i.): 2.92 ± 0.67 % IA/g
Lung (24 h p.i.): 8.62 ± 1.47 % IA/g
Muscle (24 h p.i.): 1.34 ± 0.14 % IA/g
PC-3 PIP Tumor (24 h p.i.): 38.2 ± 2.59 % IA/g
PC-3 flu Tumor (24 h p.i.): 3.95 ± 0.82 % IA/g
Salivary glands (24 h p.i.): 3.38 ± 0.32 % IA/g
Spleen (24 h p.i.): 3.60 ± 0.43 % IA/g
Stomach (24 h p.i.): 1.39 ± 0.07 % IA/g
Tumor-to-blood (24 h p.i.): 2.71 ± 0.39
Tumor-to-kidney (24 h p.i.): 1.69 ± 0.07
Tumor-to-liver (24 h p.i.): 13.5 ± 2.79
Blood (48 h p.i.): 12.0 ± 2.18 % IA/g
Bone (48 h p.i.): 1.64 ± 0.34 % IA/g
Heart (48 h p.i.): 4.42 ± 0.81 % IA/g
Intestines (48 h p.i.): 1.84 ± 0.54 % IA/g
Kidneys (48 h p.i.): 25.2 ± 4.15 % IA/g
Liver (48 h p.i.): 3.03 ± 0.63 % IA/g
Lung (48 h p.i.): 7.67 ± 0.83 % IA/g
Muscle (48 h p.i.): 1.35 ± 0.46 % IA/g
PC-3 PIP Tumor (48 h p.i.): 65.6 ± 1.84 % IA/g
PC-3 flu Tumor (48 h p.i.): 4.64 ± 1.84 % IA/g
Salivary glands (48 h p.i.): 3.96 ± 0.98 % IA/g
Spleen (48 h p.i.): 4.62 ± 1.12 % IA/g
Stomach (48 h p.i.): 1.49 ± 0.47 % IA/g
Tumor-to-blood (48 h p.i.): 5.54 ± 0.76
Tumor-to-kidney (48 h p.i.): 2.64 ± 0.40
Tumor-to-liver (48 h p.i.): 22.2 ± 4.11
Blood (96 h p.i.): 6.68 ± 0.85 % IA/g
Bone (96 h p.i.): 1.07 ± 0.22 % IA/g
Heart (96 h p.i.): 2.70 ± 0.37 % IA/g
Intestines (96 h p.i.): 1.05 ± 0.17 % IA/g
Kidneys (96 h p.i.): 13.0 ± 1.30 % IA/g
Liver (96 h p.i.): 1.88 ± 0.36 % IA/g
Lung (96 h p.i.): 5.07 ± 0.66 % IA/g
Muscle (96 h p.i.): 0.82 ± 0.12 % IA/g
PC-3 PIP Tumor (96 h p.i.): 62.3 ± 3.56 % IA/g
PC-3 flu Tumor (96 h p.i.): 2.76 ± 0.23 % IA/g
Salivary glands (96 h p.i.): 2.22 ± 0.38 % IA/g
Spleen (96 h p.i.): 3.12 ± .015 % IA/g
Stomach (96 h p.i.): 0.81 ± 0.04 % IA/g
Tumor-to-blood (96 h p.i.): 9.39 ± 0.65
Tumor-to-kidney (96 h p.i.): 4.80 ± 0.20
Tumor-to-liver (96 h p.i.): 33.7 ± 4.33
Blood (144 h p.i.): 5.78 ± 0.90 % IA/g
Bone (144 h p.i.): 0.99 ± 0.20 % IA/g
Heart (144 h p.i.): 2.23 ± 0.29 % IA/g
Intestines (144 h p.i.): 1.07 ± 0.13 % IA/g
Kidneys (144 h p.i.): 10.2 ± 3.41 % IA/g
Liver (144 h p.i.): 1.56 ± 0.16 % IA/g
Lung (144 h p.i.): 4.90 ± 0.58 % IA/g
Muscle (144 h p.i.): 0.66 ± 0.15 % IA/g
PC-3 PIP Tumor (144 h p.i.): 78.4 ± 8.57 % IA/g
PC-3 flu Tumor (144 h p.i.): 2.82 ± 0.24 % IA/g
Salivary glands (144 h p.i.): 1.68 ± 0.53 % IA/g
Spleen (144 h p.i.): 4.32 ± 0.57 % IA/g
Stomach (144 h p.i.): 0.84 ± 0.13 % IA/g
Tumor-to-blood (144 h p.i.): 13.8 ± 2.38
Tumor-to-kidney (144 h p.i.): 8.05 ± 1.77
Tumor-to-liver (144 h p.i.): 50.5 ± 6.28
Blood (192 h p.i.): 5.21 ± 1.37 % IA/g
Bone (192 h p.i.): 0.86 ± 0.17 % IA/g
Heart (192 h p.i.): 2.12 ± 0.68 % IA/g
Intestines (192 h p.i.): 1.02 ± 0.25 % IA/g
Kidneys (192 h p.i.): 7.56 ± 1.44 % IA/g
Liver (192 h p.i.): 1.51 ± 0.37 % IA/g
Lung (192 h p.i.): 4.12 ± 0.96 % IA/g
Muscle (192 h p.i.): 0.64 ± 0.13 % IA/g
PC-3 PIP Tumor (192 h p.i.): 75.6 ± 22.0 % IA/g
PC-3 flu Tumor (192 h p.i.): 2.73 ± 0.84 % IA/g
Salivary glands (192 h p.i.): 1.78 ± 0.34 % IA/g
Spleen (192 h p.i.): 4.09 ± 1.12 % IA/g
Stomach (192 h p.i.): 0.73 ± 0.12 % IA/g
Tumor-to-blood (192 h p.i.): 14.5 ± 1.84
Tumor-to-kidney (192 h p.i.): 9.87 ± 1.05
Tumor-to-liver (192 h p.i.): 50.2 ± 7.38
